Reference: US7432269B2, “Arylpiperaszine derivatives, to the process for the production thereof and to the use thereof as therapeutic agents” (Bioprojet, priority 2004, dated 2008)
Where a name gives a salt, the structure may show the parent alone.

How the values were obtained:
[1] = biological target: T1, human D3 dopamine receptor (hD3) (Homo sapiens, UniProt P35462); assay: [3H]spiperone binding to human D3 dopamine receptor (transfected CHO cell membranes); details: CHO cells transfected with hD3
T1 construct: expressed in transfected cells; host or cells: CHO cells
T1 sequence (P35462 whole entry): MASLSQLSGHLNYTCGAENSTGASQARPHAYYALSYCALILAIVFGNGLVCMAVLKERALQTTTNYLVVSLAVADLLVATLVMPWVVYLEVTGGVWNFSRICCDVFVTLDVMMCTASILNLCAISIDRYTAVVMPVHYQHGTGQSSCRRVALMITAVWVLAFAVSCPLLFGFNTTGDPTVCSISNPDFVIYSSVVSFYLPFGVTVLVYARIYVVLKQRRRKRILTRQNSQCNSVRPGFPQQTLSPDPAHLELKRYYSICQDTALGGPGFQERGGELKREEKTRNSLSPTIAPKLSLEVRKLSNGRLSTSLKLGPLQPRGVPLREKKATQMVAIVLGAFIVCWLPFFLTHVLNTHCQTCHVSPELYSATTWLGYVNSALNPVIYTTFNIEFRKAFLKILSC
Method: CHO cells were transfected with the gene coding for the human D3 dopamine receptor (hD3). [^3H]spiperone binding (0.5 to 2 nM) is performed in the presence of 5 to 10 μg of membrane proteins in a medium containing 120 mM of NaCl, 5 mM of KCl, and 50 mM of Tris-HCl pH 7.4; incubation of 60 minutes at ambient temperature is necessary. Non-specific binding is estimated in the presence of 5 μM of haloperidol. Non-transfected cells have absolutely no binding activity.

[2] = test system: human alpha-1 adrenergic receptor (hα1); assay: [3H]prasozin binding to human alpha-1 adrenergic receptor (transfected HEK 293 cell membranes); details: HEK 293 cells transfected with hα1
Method: HEK 293 cells were transfected with the gene coding for the human alpha-1 adrenergic receptor (hα1). [3H]prasozin binding (0.02 to 2 nM) is performed in the presence of 5 to 10 μg of membrane proteins in a medium containing 0.5 mM of EDTA and 50 mM of Tris-HCl pH 7.4; incubation of 60 minutes at ambient temperature is necessary. Non-specific binding is estimated in the presence of 10 μM of phentolamine. Non-transfected cells have absolutely no binding activity.

With `FC(F)(F)c1cccc(N2CCN(CCCCNc3cc(-c4ccccc4)ccn3)CC2)c1` [Example 4, 2-{4-[4-(3-trifluoromethyl-phenyl)piperazin-1-yl]butyl}amino-4-phenylpyridine dihydrochloride] the Ki [1] was 0.76 nM and the Ki [2] was 162 nM.

`Clc1cccc(N2CCN(CCCCNc3cc(-c4ccccc4)ccn3)CC2)c1Cl` [Example 6, 2-{4-[4-(2,3-dichlorophenyl)piperazin-1-yl]butyl}amino-4-phenylpyridine] was tested, and the Ki [1] was 0.55 nM and the Ki [2] was 136 nM.
